Literature values as cited in patent US20240016170A1, “A ZINC FORTIFIED TEA COMPOSITION” (EKATERRA TEA MANUFACTURING USA LLC, priority 2020, published 2024).

Conditions: water at 25° C.

[O]=[Zn] [zinc oxide]
solubility: 0.0004 g/100 g water
